In patent US8173635B2, “Kinase inhibitors” (Vertex Pharmaceuticals Incorporated, priority 2007, dated 2012):

What was measured:
Assay type in all cases: biochemical
PKC theta kinase = PKC theta kinase (Homo sapiens, UniProt Q04759); experiment: PKC theta kinase inhibition, coupled-enzyme NADH absorbance assay (Ki); details: 240 μM ATP, 18 nM PKC theta, 30° C.; read-out: Ki PKC theta
Protocol: (§1) An assay buffer solution was prepared which consisted of 100 mM HEPES (pH 7.5), 10 mM MgCl2, 25 mM NaCl, 0.1 mM EDTA and 0.01% Brij. […] To 60 μL of this enzyme buffer, in a 384 well plate, was added 2 μL of VRT stock solution in DMSO. The mixture was allowed to equilibrate for 10 mins at 30° C. […] Ki values were calculated from initial rate data by non-linear regression using the Prism software package (Prism 4.0a, Graphpad Software, San Diego, Calif.).

PKC delta kinase = PKC delta kinase (Homo sapiens, UniProt Q05655); experiment: PKC delta kinase inhibition, coupled-enzyme NADH absorbance assay (Ki); details: 150 μM ATP, 46 nM PKC delta, 30° C.; read-out: Ki PKC delta
Protocol: as §1, with “To 16” for “To 60”, “added 1” for “added 2”

PKC alpha kinase = PKC alpha kinase (Homo sapiens, UniProt P17252); experiment: PKC alpha kinase inhibition, coupled-enzyme NADH absorbance assay (Ki); details: 130 μM ATP, 4.5 nM PKC alpha, 30° C.; read-out: Ki PKC alpha
Protocol: An assay buffer solution was prepared which consisted of 100 mM HEPES (pH 7.5), 10 mM MgCl2, 25 mM NaCl, 0.1 mM EDTA, 100 μM CaCl2 and 0.01% Brij. […] To 16 μL of this enzyme buffer, in a 384 well plate, was added 1 μL of VRT stock solution in DMSO. The mixture was allowed to equilibrate for 10 mins at 30° C. The enzyme reaction was initiated by the addition of 16 μL stock ATP solution prepared in assay buffer to a final assay concentration of 130 μM. Initial rate data was determined from the rate of change of absorbance at 340 nm (corresponding to stoichiometric consumption of NADH) using a Molecular Devices Spectramax plate reader (Sunnyvale, Calif.) over 15 mins at 30° C. […] Ki values were calculated from initial rate data by non-linear regression using the Prism software package (Prism 4.0a, Graphpad Software, San Diego, Calif.).

PKC delta kinase, sequence (Q05655 whole entry): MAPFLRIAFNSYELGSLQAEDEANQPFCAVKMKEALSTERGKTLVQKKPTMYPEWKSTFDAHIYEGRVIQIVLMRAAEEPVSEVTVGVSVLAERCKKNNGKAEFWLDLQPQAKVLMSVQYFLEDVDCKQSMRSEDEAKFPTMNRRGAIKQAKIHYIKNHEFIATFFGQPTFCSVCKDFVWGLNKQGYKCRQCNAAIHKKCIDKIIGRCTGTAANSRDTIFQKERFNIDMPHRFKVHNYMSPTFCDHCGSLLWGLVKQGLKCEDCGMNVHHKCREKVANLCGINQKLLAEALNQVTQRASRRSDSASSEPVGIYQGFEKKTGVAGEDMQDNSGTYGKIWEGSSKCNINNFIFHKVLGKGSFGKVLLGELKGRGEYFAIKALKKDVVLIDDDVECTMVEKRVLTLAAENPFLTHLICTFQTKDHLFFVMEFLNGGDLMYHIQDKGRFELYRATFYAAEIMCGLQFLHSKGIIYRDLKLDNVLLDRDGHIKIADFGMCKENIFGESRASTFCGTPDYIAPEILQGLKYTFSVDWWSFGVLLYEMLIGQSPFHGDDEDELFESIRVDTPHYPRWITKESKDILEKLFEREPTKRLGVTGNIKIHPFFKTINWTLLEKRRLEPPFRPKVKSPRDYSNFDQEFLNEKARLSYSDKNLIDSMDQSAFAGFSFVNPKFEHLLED
PKC theta kinase, sequence (Q04759 whole entry): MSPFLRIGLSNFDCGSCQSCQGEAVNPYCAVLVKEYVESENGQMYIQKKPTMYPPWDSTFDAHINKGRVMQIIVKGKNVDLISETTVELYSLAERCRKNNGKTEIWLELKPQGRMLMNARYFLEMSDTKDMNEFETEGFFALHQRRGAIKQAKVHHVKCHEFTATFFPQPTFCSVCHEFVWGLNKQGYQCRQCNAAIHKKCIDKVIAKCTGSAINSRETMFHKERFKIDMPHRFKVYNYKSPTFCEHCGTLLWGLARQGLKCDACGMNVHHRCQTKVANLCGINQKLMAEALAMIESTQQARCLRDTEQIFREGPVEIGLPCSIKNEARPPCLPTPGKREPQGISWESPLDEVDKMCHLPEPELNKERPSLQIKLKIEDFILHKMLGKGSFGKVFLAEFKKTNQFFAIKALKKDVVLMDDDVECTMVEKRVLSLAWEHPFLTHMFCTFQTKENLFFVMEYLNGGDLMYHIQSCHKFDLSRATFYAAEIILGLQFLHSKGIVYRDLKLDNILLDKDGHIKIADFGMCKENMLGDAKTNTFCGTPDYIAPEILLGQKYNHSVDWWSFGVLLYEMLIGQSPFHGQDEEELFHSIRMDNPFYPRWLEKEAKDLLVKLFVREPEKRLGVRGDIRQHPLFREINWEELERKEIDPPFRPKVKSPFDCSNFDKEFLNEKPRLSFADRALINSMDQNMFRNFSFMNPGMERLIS

| SMILES | Ki (PKC theta kinase) [nM] | Ki (PKC delta kinase) [nM] | Ki (PKC alpha kinase) [nM] |
| --- | --- | --- | --- |
| CCC1(c2cccc(-c3ccnc4[nH]ncc34)c2)CCNC1 (centres unmarked) [Compound 194] | < 50 | < 500 | < 500 |
| Cc1cc(-c2ccnc3[nH]nc(C(F)(F)F)c23)cc(C2(CN)CC2)c1 [Compound 282] | < 50 | < 500 | < 500 |
| CCc1n[nH]c2nccc(-c3cccc(C4(CN)COC4)c3)c12 [Compound 306] | < 50 | < 500 | > 1200 |
| CCC(C)(CO)c1cccc(-c2ccnc3[nH]nc(C(F)(F)F)c23)c1 (centres unmarked) [Compound 318] | < 50 | < 50 | < 500 |
| CCC(C)(CN)c1cc(C)cc(-c2ccnc3[nH]ncc23)c1 (centres unmarked) [Compound 144] | < 50 | < 500 | < 500 |
| CCC(F)c1cc(-c2ccnc3[nH]ncc23)cc(C(C)(C#N)CC)c1 (centres unmarked) [Compound 106] | < 500 | > 2000 | < 2800 |
| c1cc(-c2ccnc3[nH]ncc23)cc(C2CCNCC2)c1 [Compound 230] | < 2800 | < 2800 | < 2800 |
| CCC(C)(C#N)c1cc(CO)cc(-c2ccnc3[nH]ncc23)c1 (centres unmarked) [Compound 121] | < 500 | > 2000 | > 1200 |
| CCC(C)(CC#N)c1cc(-c2ccnc3[nH]ncc23)cc(C(F)(F)CCC2CCCC2)c1 (centres unmarked) [Compound 239] | > 700 | > 2000 | > 1200 |
| COCC(C)(CN)c1cccc(-c2ccnc3[nH]ncc23)c1 (centres unmarked) [Compound 150] | < 50 | < 500 | < 2800 |
| NCC1(c2cccc(-c3ccnc4[nH]nc(C(F)(F)F)c34)c2)CCC1 [Compound 280] | < 50 | < 500 | < 500 |
| CCC(C)(CN)c1cc(CCCOC)cc(-c2ccnc3[nH]ncc23)c1 (centres unmarked) [Compound 164] | < 50 | < 2800 | < 500 |
| CC(O)c1cc(-c2ccnc3[nH]ncc23)cc(C(C)(C)C#N)c1 (centres unmarked) [Compound 22] | < 500 | > 2800 | > 2800 |
| N#CC1(c2cc(CCN)cc(-c3ccnc4[nH]ncc34)c2)CC1 [Compound 128] | < 500 | > 2000 | > 1200 |
| CCCc1cc(-c2ccnc3[nH]ncc23)cc(C2(C#N)CCCC2)c1 [Compound 97] | < 500 | > 2800 | > 2800 |
| CCC(C)(C#N)c1cccc(-c2ccnc3[nH]ncc23)c1 (centres unmarked) [Compound 64, 2-(3-(1H-pyrazolo[3,4-b]pyridin-4-yl)phenyl)-2-methylbutanenitrile] | < 500 | < 2800 | < 2800 |
| NC[C@]1(c2cccc(-c3ccnc4[nH]ncc34)c2)CC[C@H](O)CC1 [Compound 183] | < 500 | < 2800 | > 1200 |
| CCC(C)(CN)c1cc(-c2ccnc3[nH]ncc23)cc(C(F)(F)CCC2CCCCC2)c1 (centres unmarked) [Compound 180] | > 700 | > 2000 | > 1200 |
| COCCCC(C)(CN)c1cccc(-c2ccnc3[nH]ncc23)c1 (centres unmarked) [Compound 169] | < 50 | < 500 | < 2800 |
| Cc1cc(-c2ccnc3[nH]ncc23)cc(C(N)C2CC2(F)F)c1 (centres unmarked) [Compound 250] | < 500 | < 2800 | < 500 |
| NC(CCC1CCCC1)c1cccc(-c2ccnc3[nH]ncc23)c1 (centres unmarked) [Compound 253] | > 700 | > 1200 | > 1200 |

| SMILES | Ki (PKC theta kinase) [nM] | Ki (PKC delta kinase) [nM] | Ki (PKC alpha kinase) [nM] |
| --- | --- | --- | --- |
| NCC1(c2cccc(-c3ccnc4[nH]ncc34)c2)CCC(F)(F)CC1 [Compound 181] | < 500 | < 2800 | < 2800 |
| CC(C)(CN)c1cc(-c2ccc[nH]2)cc(-c2ccnc3[nH]ncc23)c1 [Compound 38] | < 500 | – | – |
| CCCc1cc(-c2ccnc3[nH]nc(C(F)(F)F)c23)cc(C2(C#N)CC2)c1 [Compound 313] | – | > 1200 | > 1200 |
| C=CCc1cc(CNC)cc(-c2ccnc3[nH]ncc23)c1 [Compound 63] | < 500 | – | – |
| CC(C)(C#N)c1cc(NC2CCNCC2)cc(-c2ccnc3[nH]ncc23)c1 [Compound 20] | < 500 | – | – |
| CC(C)(C#N)c1cc(-c2ccnc3n[nH]cc23)ccc1Br [Compound 83] | < 2800 | – | – |
| O=C1CCc2ccc(-c3ccnc4[nH]ncc34)cc21 [Compound 28] | < 500 | – | – |
| CC(C)C(O)c1cc(-c2ccnc3[nH]ncc23)cc(C(C)(C)CN)c1 (centres unmarked) [Compound 43] | < 2800 | – | – |
| CCC(C#N)(CC)c1cccc(-c2ccnc3[nH]ncc23)c1 [Compound 68] | < 500 | – | < 2800 |
| N#CC1(c2cccc(-c3ccnc4[nH]ncc34)c2)CCNCC1 [Compound 6] | < 500 | < 2800 | – |
| CC(C)(C#N)c1cc(C2=CCCCC2)cc(-c2ccnc3[nH]ncc23)c1 [Compound 56] | > 2800 | – | – |
| C=C(C)c1cc(-c2ccnc3[nH]ncc23)cc(C(C)(C)C#N)c1 [Compound 65] | < 500 | – | – |
| OC1CCc2ccc(-c3ccnc4[nH]ncc34)cc21 (centres unmarked) [Compound 29] | > 2800 | – | – |
| CC(C)(C#N)c1cccc(-c2ccnc3[nH]ncc23)c1 [Compound 4, 2-(3-(1H-pyrazolo[3,4-b]pyridin-4-yl)phenyl)-2-methylpropanenitrile] | < 50 | < 2800 | – |
| CC(C)(CN)c1cc(C2=CCCCC2)cc(-c2ccnc3[nH]ncc23)c1 [Compound 37] | < 2800 | – | – |
| CC(C)(C#N)c1cc(-c2ccccc2)cc(-c2ccnc3[nH]ncc23)c1 [Compound 53, 2-(5-(1H-pyrazolo[3,4-b]pyridin-4-yl)biphenyl-3-yl)-2-methylpropanenitrile] | < 2800 | – | – |
| CC(C)(C#N)c1cc(Nc2ccccc2)cc(-c2ccnc3[nH]ncc23)c1 [Compound 10] | < 500 | > 2800 | – |
| CC(=O)N1CCN(c2cc(-c3ccnc4[nH]ncc34)cc(C(C)(C)C#N)c2)CC1 [Compound 7] | > 2800 | > 2800 | – |
| CC(C)(C)OC(=O)NCCNc1cc(-c2ccnc3[nH]ncc23)cc(C(C)(C)C#N)c1 [Compound 81] | < 2800 | – | – |
| N#CC1(c2cccc(-c3ccnc4[nH]ncc34)n2)CCNC1 (centres unmarked) [Compound 3] | < 50 | < 500 | – |
| OC1CCc2cc(-c3ccnc4[nH]ncc34)ccc21 (centres unmarked) [Compound 27] | < 2800 | – | – |

| SMILES | Ki (PKC theta kinase) [nM] | Ki (PKC delta kinase) [nM] | Ki (PKC alpha kinase) [nM] |
| --- | --- | --- | --- |
| CC(C)(CN)c1cc(-c2ccccc2)cc(-c2ccnc3[nH]ncc23)c1 [Compound 35] | < 2800 | – | – |
| CC(C)(CN)c1cc(-c2ccnc3[nH]ncc23)cc(N2CCCCC2)c1 [Compound 33] | > 2800 | – | – |
| N#CC1(c2cccc(-c3ccnc4[nH]ncc34)n2)CCNCC1 [Compound 2] | < 50 | < 500 | – |
| CC(C)(C#N)c1cc(NC2CNC2)cc(-c2ccnc3[nH]ncc23)c1 [Compound 14] | < 500 | – | – |
| CC(C)(C#N)c1cc(NCCCNC(=O)OCc2ccccc2)cc(-c2ccnc3[nH]ncc23)c1 [Compound 82] | < 2800 | – | – |
| CC(C)(C#N)c1cc(-c2ccnc3[nH]ncc23)cc(C2CCCCC2)c1 [Compound 58] | < 2800 | – | – |
| CC(C)(C#N)c1cc(-c2ccnc3[nH]ncc23)cc(N2CCCCC2)c1 [Compound 9] | < 2800 | – | – |
| CC(=O)c1cc(-c2ccnc3[nH]ncc23)cc(C(C)(C)C#N)c1 [Compound 24] | < 500 | – | – |
| N#CCc1cccc(-c2ccnc3[nH]ncc23)c1 [Compound 23] | < 500 | – | – |
| C/C=C/c1cc(CNC)cc(-c2ccnc3[nH]ncc23)c1 [Compound 60] | < 2800 | – | – |
| CC(C)(C#N)c1cc(NCc2ccccc2)cc(-c2ccnc3[nH]ncc23)c1 [Compound 12] | < 2800 | – | – |
| Cc1cc(-c2ccnc3[nH]ncc23)cc(C(C)(C)C#N)c1 [Compound 5] | < 50 | < 2800 | – |
| Cc1cc(-c2ccnc3[nH]ncc23)cc(C2(CN)CCCC2)c1 [Compound 189] | < 50 | – | < 2800 |
| CC(C)(C#N)c1cc(C(=O)c2ccccc2)cc(-c2ccnc3[nH]ncc23)c1 [Compound 16] | < 2800 | – | – |
| CC(C)(C#N)c1cc(-c2ccnc3[nH]ncc23)cc(C(O)c2ccccc2)c1 (centres unmarked) [Compound 15] | < 2800 | – | – |
| CNCc1cc(Br)cc(-c2ccnc3[nH]ncc23)c1 [Compound 25] | < 500 | – | – |
| C#Cc1cc(-c2ccnc3[nH]ncc23)cc(C(C)(C)C#N)c1 [Compound 61] | < 500 | – | – |
| O=C1CCc2cc(-c3ccnc4[nH]ncc34)ccc21 [Compound 26] | < 2800 | – | – |
| CC(C)(C#N)c1cc(-c2ccnc3[nH]ncc23)cc(N2CCNCC2)c1 [Compound 8] | < 500 | > 2800 | – |
